Laboratory results published in PMC10449633 (Nature Chemical Biology, 2023).
Where “and” joins values, the source holds several entries; their conditions need not be identical. Identical values can stand only once.

Experiments:
[1] = test system: mouse skin inflammation model; set-up: method as in PMID 26019221; conditions: at its maximum tolerated dose; cited from earlier work
Sec61 = molecular target: T1, Sec61 (Homo sapiens, UniProt P61619); assay: cell-based; format: cell-based
T1 construct: endogenous in cells
T1 sequence (P61619 whole entry): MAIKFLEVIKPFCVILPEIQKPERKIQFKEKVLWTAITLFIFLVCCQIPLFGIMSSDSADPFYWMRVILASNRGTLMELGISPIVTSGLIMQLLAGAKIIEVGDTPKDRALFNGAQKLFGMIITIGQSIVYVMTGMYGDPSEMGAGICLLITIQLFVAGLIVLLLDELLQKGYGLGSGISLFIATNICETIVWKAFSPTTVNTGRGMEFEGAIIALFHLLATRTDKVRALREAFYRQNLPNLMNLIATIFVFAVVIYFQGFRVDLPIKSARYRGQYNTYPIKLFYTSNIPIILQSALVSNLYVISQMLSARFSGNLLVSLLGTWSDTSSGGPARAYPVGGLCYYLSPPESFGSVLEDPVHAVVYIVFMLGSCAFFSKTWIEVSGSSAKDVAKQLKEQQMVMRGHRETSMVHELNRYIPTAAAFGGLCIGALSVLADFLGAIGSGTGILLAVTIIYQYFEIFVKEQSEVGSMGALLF
T1 sequence (P60059 whole entry, further chain): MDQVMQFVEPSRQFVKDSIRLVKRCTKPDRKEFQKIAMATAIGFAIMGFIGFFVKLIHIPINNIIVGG
T1 sequence (P60468 whole entry, further chain): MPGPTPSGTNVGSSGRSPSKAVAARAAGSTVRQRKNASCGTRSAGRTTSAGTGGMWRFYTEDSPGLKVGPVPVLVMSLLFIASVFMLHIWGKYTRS

In the case of mycolactone A/B, the “efficacy in mouse skin inflammation model” value [1] is listed as “modest efficacy”, the “potency against VCAM-GLuc relative to pPL-GLuc” value (Sec61; HEK293T, 24 h) is listed as “equipotent” and the “secreted luciferase activity (% of no-drug control)” value (Sec61; VCAM signal peptide, Drug nM (log10) 0.18303) is listed as 91.1752% and 96.3566% and 105.08% and 96.2111%. The “secreted luciferase activity (% of no-drug control)” value (Sec61; VCAM signal peptide, Drug nM (log10) 0.660151) was 60.5653% and 60.6911% and 72.2191% and 65.68%, the “secreted luciferase activity (% of no-drug control)” value (Sec61; VCAM signal peptide, Drug nM (log10) 1.13727) was 69.7373% and 62.7916% and 84.5753% and 63.8152% and the “secreted luciferase activity (% of no-drug control)” value (Sec61; VCAM signal peptide, Drug nM (log10) 1.61439) was 23.3051% and 17.9704% and 24.3586% and 17.2696%. The “secreted luciferase activity (% of no-drug control)” value (Sec61; VCAM signal peptide, Drug nM (log10) 2.09151) was 9.614% and 7.324% and 15.2923% and 7.158%, the “secreted luciferase activity (% of no-drug control)” value (Sec61; VCAM signal peptide, Drug nM (log10) 2.56864) was 5.834% and 4.881% and 8.3778% and 4.722% and the “secreted luciferase activity (% of no-drug control)” value (Sec61; VCAM signal peptide, Drug nM (log10) 3.04576) was 4.831% and 3.708% and 6.049% and 3.853%. For the same substance, the “secreted luciferase activity (% of no-drug control)” value (Sec61; VCAM signal peptide, Drug nM (log10) 3.52288) was 3.813% and 3.595% and 4.497% and 3.349%, the “secreted luciferase activity (% of no-drug control)” value (Sec61; VCAM signal peptide, Drug nM (log10) 4) was 4.399% and 3.701% and 4.702% and 3.31% and the “secreted luciferase activity (% of no-drug control)” value (Sec61; VCAM signal peptide, Drug nM (log10) -0.29409) was 91.3897% and 90.48% and 98.9457% and 92.5099%. For the same substance, the “secreted luciferase activity (% of no-drug control)” value (Sec61; pPL signal peptide, Drug nM (log10) 0.18303) was 96.941% and 113.105% and 106.161% and 90.9819%, the “secreted luciferase activity (% of no-drug control)” value (Sec61; pPL signal peptide, Drug nM (log10) 0.660151) was 87.4346% and 105.37% and 92.2325% and 88.4507% and the “secreted luciferase activity (% of no-drug control)” value (Sec61; pPL signal peptide, Drug nM (log10) 1.13727) was 90.1482% and 100.766% and 90.4471% and 85.7727%. For the same substance, the “secreted luciferase activity (% of no-drug control)” value (Sec61; pPL signal peptide, Drug nM (log10) 1.61439) was 34.1743% and 36.4459% and 25.7816% and 32.3021%, the “secreted luciferase activity (% of no-drug control)” value (Sec61; pPL signal peptide, Drug nM (log10) 2.09151) was 11.7024% and 15.7348% and 12.066% and 11.9677% and the “secreted luciferase activity (% of no-drug control)” value (Sec61; pPL signal peptide, Drug nM (log10) 2.56864) was 10.1212% and 10.0148% and 7.898% and 9.649%. For the same substance, the “secreted luciferase activity (% of no-drug control)” value (Sec61; pPL signal peptide, Drug nM (log10) 3.04576) was 5.549% and 7.948% and 6.334% and 6.2294%, the “secreted luciferase activity (% of no-drug control)” value (Sec61; pPL signal peptide, Drug nM (log10) 3.52288) was 4.849% and 7.368% and 5.461% and 6.2207% and the “secreted luciferase activity (% of no-drug control)” value (Sec61; pPL signal peptide, Drug nM (log10) 4) was 4.167% and 6.905% and 5.234% and 5.9772%. For the same substance, the “secreted luciferase activity (% of no-drug control)” value (Sec61; pPL signal peptide, Drug nM (log10) -0.29409) was 102.214% and 111.849% and 98.9284% and 92.0234%.
